Molecules are shown by their SMILES.

The subject of this test is Candida. The test is described as follows: Antimicrobial in-vivo activity (oral) in mouse candidosis. Set-up: species or system Mäuse vom Typ SPF-DF1. The note with it: mice infected i.v. with Candida cells; 50 to 100 mg/kg oral, one hour before and seven hours after infection; compared with prior-art compounds; untreated survival about 5 % on day 6. How it is done:
Mäuse vom Typ SPF-DF1 wurden intravenös mit 1 bis 2 x 10^6 logarytmisch wachsenden Candida-Zellen, die in physiologischer Kochsalzlösung suspendiert waren, infiziert. Eine Stunde vor und sieben Stunden nach der Infektion werden die Tiere mit jeweils 50 bis 100 mg/kg Körpergewicht der Präparate oral behandelt.
Unbehandelte Tiere starben 3 bis 6 Tage post infektionem. Die Überlebensrate am 6. Tag post infektionem betrug bei unbehandelten Kontrolltieren etwa 5 %.
Take `CC(C)(C)C(O)C(C(O)C(Cl)(Cl)Cl)n1cncn1` (centres unmarked) [Beispiel 1, 1,1,1-Trichlor-3-(1,2,4-triazol-1-yl)-5,5-dimethyl-hexan-2,4-diol]: the in-vivo-Wirksamkeit entry is recorded as “denjenigen der Verbindungen des Standes der Technik überlegen”.
Next, `CC(C)(C)C(O)C(C(O)C(C)(C)Cl)n1cncn1` (centres unmarked) [Beispiel 4]: “denjenigen der Verbindungen des Standes der Technik überlegen”; `CC(C)(C)C(O)C(C(O)C=C(Cl)Cl)n1cncn1` (centres unmarked) [Beispiel 6]: “denjenigen der Verbindungen des Standes der Technik überlegen”.
Next, `CC(Cl)C(Cl)(Cl)C(O)C(C(O)C(C)(C)CF)n1cncn1` (centres unmarked) [Beispiel 11]: “denjenigen der Verbindungen des Standes der Technik überlegen”; `OC(c1ccc(Cl)cc1)C(C(O)C(Cl)(Cl)Cl)n1cncn1` (centres unmarked) [Beispiel 12]: “denjenigen der Verbindungen des Standes der Technik überlegen”.
Next, `OC(c1ccc(Cl)cc1Cl)C(C(O)C(Cl)(Cl)Cl)n1cncn1` (centres unmarked) [Beispiel 14]: “denjenigen der Verbindungen des Standes der Technik überlegen”; `OC(c1ccc(F)cc1)C(C(O)C(Cl)(Cl)Cl)n1cncn1` (centres unmarked) [Beispiel 15]: “denjenigen der Verbindungen des Standes der Technik überlegen”.
Consider `CC(Cl)C(Cl)(Cl)C(O)C(C(O)C(C)(C)C)n1cncn1` (centres unmarked) [Beispiel 21], for which the in-vivo-Wirksamkeit result is given as “denjenigen der Verbindungen des Standes der Technik überlegen”.

(Values after EP0033088A2, “Antimycotic agents” (BAYER AG, priority 1980, dated 1981).)
